Values quoted from earlier work, collected in patent US20250224401A1, “METHODS OF DIAGNOSING B CELL MALIGNANCIES, DETECTING B CELL MALIGNANCY RELAPSE, AND TREATING THEREOF” (Rutgers, The State University of New Jersey, priority 2022, published 2025).

Tested on: cultured human malignant B cells
Details: in vitro

In the case of `C=CC(=O)N1CCC[C@@H](n2nc(-c3ccc(Oc4ccccc4)cc3)c3c(N)ncnc32)C1` [ibrutinib], the “cytotoxic effects on cultured human malignant B cells” value is given as “moderate or minimal cytotoxic effects”.
